System: patients with advanced solid tumors
Test: Safety: treatment-emergent and senaparib-related adverse events graded per NCI CTCAE v4.03
Format: in vivo
Conditions: TEAE
Experimental: This phase I, open-label, multicenter, dose-escalation, and dose-expansion study was conducted at three national clinical institutions in China. […] At baseline, all patients enrolled in the dose-escalation phase had to have at least one evaluable lesion, and those in the dose-expansion period had to have at least one measurable lesion, according to Response Evaluation Criteria in Solid Tumors version 1.1 (RECIST v1.1).[16] Entry to the dose-expansion cohort required the presence of a BRCA mutation, with the exception of patients with ovarian carcinoma, fallopian tube carcinoma, and primary peritoneal carcinoma. Full study eligibility criteria are provided in Supplementary Table S1.
Dose escalation was conducted using a modified Fibonacci 3 + 3 method (Supplementary Fig. S1).[17] Patients were administered oral senaparib from a planned starting dose of 2 mg once daily (QD), with preliminary dose escalation to 120 mg via nine dose groups, in order of their entry into the study. At a given dose level, each patient received a single dose of senaparib followed by a 7-day washout period. They then entered a continuous dosing period to confirm the safety and PK profile, in which they received senaparib QD from day 1 to day 21 of each 3-week cycle. Progression to the next higher dose required approval from the Data Safety Monitoring Committee (DSMC) upon review of the safety and PK data of the previous dose. A 50-mg twice-daily (BID) dosing group was added (planned enrollment, n = 6 patients) based on a DSMC review of the safety, PK, and efficacy analysis of the completed QD dose groups in the phase I clinical trial of senaparib dose escalation in Australia (NCT03507543), which commenced prior to the start of this trial.
The dose-expansion period included 3 populations: dose groups in which at least one patient achieved complete response (CR) or partial response (PR) per RECIST v1.1[16] and 1 dose group higher (evaluated for safety), as well as the dose group at the maximum tolerated dose (MTD)/recommended phase II dose (RP2D). Each of these groups included those patients in the respective dose-escalation group plus a planned additional 10 patients (approximately 20 patients in the MTD/RP2D group) with BRCA^mut+ solid tumors (ovarian, breast, or prostate cancer were preferred, and ovarian cancer could be BRCA wild type). Patients received senaparib monotherapy orally QD or BID (50-mg dose only) over each 3-week cycle until disease progression or unacceptable toxicity.
DLTs were predefined toxicities (Supplementary Table S2) recorded over the 7 days following the single-dose administration of senaparib and during the first treatment cycle (day 1-day 21) for each dose group in the dose-escalation period only. The MTD was defined as the maximum dose at which ≤1/6 patients experienced a DLT. Senaparib PK parameters were derived from blood samples collected from patients after the single administration, and at regular intervals during the first cycle of the dose-escalation and dose-expansion periods. Plasma concentrations of senaparib were determined using high-performance liquid chromatography-tandem mass spectrometry. Tumor response was assessed every 6 weeks per RECIST v1.1,[16] recording objective response rate (ORR), disease control rate (DCR), duration of response (DOR), and progression-free survival (PFS) by dose level for all patients and for those harboring BRCA^mut+ tumors.

O=C(c1cc(Cn2c(=O)[nH]c(=O)c3c(F)cccc32)ccc1F)N1CCN(c2ncccn2)CC1 [Senaparib]
1 (20.0) n (%): Abdominal distension, All (20 mg QD n = 5) | Anemia (incl. hemoglobin decreased), All (20 mg QD n = 5) | Anemia (incl. hemoglobin decreased), Gr≥3 (20 mg QD n = 5) | Appetite decreased, All (20 mg QD n = 5) | Asthenia, All (20 mg QD n = 5) | Blood creatinine increased, All (20 mg QD n = 5) | Hypokalemia, All (20 mg QD n = 5) | Nausea, All (20 mg QD n = 5) | Pain in extremity, All (20 mg QD n = 5) | Pain in extremity, Gr≥3 (20 mg QD n = 5) | Platelet count decreased, All (20 mg QD n = 5) | Protein in urine, All (20 mg QD n = 5) | WBC decreased, All (20 mg QD n = 5) | Appetite decreased, All (60 mg QD n = 5) | Asthenia, All (60 mg QD n = 5)
0 n (%): Vomiting, Gr≥3 (10 mg QD n = 3) | WBC decreased, Gr≥3 (10 mg QD n = 3) | ALT increased, All (20 mg QD n = 5) | ALT increased, Gr≥3 (20 mg QD n = 5) | AST increased, All (20 mg QD n = 5) | AST increased, Gr≥3 (20 mg QD n = 5) | Abdominal distension, Gr≥3 (20 mg QD n = 5) | Appetite decreased, Gr≥3 (20 mg QD n = 5) | Asthenia, Gr≥3 (20 mg QD n = 5) | Blood bilirubin increased, All (20 mg QD n = 5) | Blood bilirubin increased, Gr≥3 (20 mg QD n = 5) | Blood creatinine increased, Gr≥3 (20 mg QD n = 5) | Hypokalemia, Gr≥3 (20 mg QD n = 5) | Hyponatremia, All (20 mg QD n = 5) | Hyponatremia, Gr≥3 (20 mg QD n = 5) | Nausea, Gr≥3 (20 mg QD n = 5) | Neutrophil count decreased, All (20 mg QD n = 5) | Neutrophil count decreased, Gr≥3 (20 mg QD n = 5) | Platelet count decreased, Gr≥3 (20 mg QD n = 5) | Protein in urine, Gr≥3 (20 mg QD n = 5) | Vomiting, All (20 mg QD n = 5) | Vomiting, Gr≥3 (20 mg QD n = 5) | WBC decreased, Gr≥3 (20 mg QD n = 5) | ALT increased, All (40 mg QD n = 3) | ALT increased, Gr≥3 (40 mg QD n = 3) | AST increased, All (40 mg QD n = 3) | AST increased, Gr≥3 (40 mg QD n = 3) | Abdominal distension, All (40 mg QD n = 3) | Abdominal distension, Gr≥3 (40 mg QD n = 3) | Anemia (incl. hemoglobin decreased), Gr≥3 (40 mg QD n = 3) | Appetite decreased, All (40 mg QD n = 3) | Appetite decreased, Gr≥3 (40 mg QD n = 3) | Asthenia, Gr≥3 (40 mg QD n = 3) | Blood bilirubin increased, All (40 mg QD n = 3) | Blood bilirubin increased, Gr≥3 (40 mg QD n = 3) | Blood creatinine increased, Gr≥3 (40 mg QD n = 3) | Hypokalemia, All (40 mg QD n = 3) | Hypokalemia, Gr≥3 (40 mg QD n = 3) | Hyponatremia, All (40 mg QD n = 3) | Hyponatremia, Gr≥3 (40 mg QD n = 3) | Nausea, All (40 mg QD n = 3) | Nausea, Gr≥3 (40 mg QD n = 3) | Neutrophil count decreased, All (40 mg QD n = 3) | Neutrophil count decreased, Gr≥3 (40 mg QD n = 3) | Pain in extremity, All (40 mg QD n = 3) | Pain in extremity, Gr≥3 (40 mg QD n = 3) | Platelet count decreased, All (40 mg QD n = 3) | Platelet count decreased, Gr≥3 (40 mg QD n = 3) | Protein in urine, All (40 mg QD n = 3) | Protein in urine, Gr≥3 (40 mg QD n = 3) | Vomiting, All (40 mg QD n = 3) | Vomiting, Gr≥3 (40 mg QD n = 3) | WBC decreased, All (40 mg QD n = 3) | WBC decreased, Gr≥3 (40 mg QD n = 3) | ALT increased, Gr≥3 (50 mg BID n = 4) | AST increased, Gr≥3 (50 mg BID n = 4) | Abdominal distension, All (50 mg BID n = 4) | Abdominal distension, Gr≥3 (50 mg BID n = 4) | Appetite decreased, All (50 mg BID n = 4) | Appetite decreased, Gr≥3 (50 mg BID n = 4) | Asthenia, Gr≥3 (50 mg BID n = 4) | Blood bilirubin increased, All (50 mg BID n = 4) | Blood bilirubin increased, Gr≥3 (50 mg BID n = 4) | Blood creatinine increased, All (50 mg BID n = 4) | Blood creatinine increased, Gr≥3 (50 mg BID n = 4) | Hypokalemia, All (50 mg BID n = 4) | Hypokalemia, Gr≥3 (50 mg BID n = 4) | Nausea, Gr≥3 (50 mg BID n = 4) | Neutrophil count decreased, All (50 mg BID n = 4) | Neutrophil count decreased, Gr≥3 (50 mg BID n = 4) | Pain in extremity, All (50 mg BID n = 4) | Pain in extremity, Gr≥3 (50 mg BID n = 4) | Platelet count decreased, Gr≥3 (50 mg BID n = 4) | Protein in urine, All (50 mg BID n = 4) | Protein in urine, Gr≥3 (50 mg BID n = 4) | Vomiting, Gr≥3 (50 mg BID n = 4) | WBC decreased, Gr≥3 (50 mg BID n = 4) | ALT increased, All (60 mg QD n = 5) | ALT increased, Gr≥3 (60 mg QD n = 5) | AST increased, All (60 mg QD n = 5) | AST increased, Gr≥3 (60 mg QD n = 5) | Abdominal distension, Gr≥3 (60 mg QD n = 5) | Anemia (incl. hemoglobin decreased), All (60 mg QD n = 5) | Anemia (incl. hemoglobin decreased), Gr≥3 (60 mg QD n = 5) | Appetite decreased, Gr≥3 (60 mg QD n = 5)
2 (40.0) n (%): Abdominal distension, All (60 mg QD n = 5)
1 (33.3) n (%): WBC decreased, All (10 mg QD n = 3) | Anemia (incl. hemoglobin decreased), All (40 mg QD n = 3) | Asthenia, All (40 mg QD n = 3) | Blood creatinine increased, All (40 mg QD n = 3)
3 (75.0) n (%): Anemia (incl. hemoglobin decreased), All (50 mg BID n = 4) | Hyponatremia, All (50 mg BID n = 4)
2 (50.0) n (%): Anemia (incl. hemoglobin decreased), Gr≥3 (50 mg BID n = 4) | Nausea, All (50 mg BID n = 4) | Vomiting, All (50 mg BID n = 4) | WBC decreased, All (50 mg BID n = 4)
1 (25.0) n (%): ALT increased, All (50 mg BID n = 4) | AST increased, All (50 mg BID n = 4) | Asthenia, All (50 mg BID n = 4) | Hyponatremia, Gr≥3 (50 mg BID n = 4) | Platelet count decreased, All (50 mg BID n = 4)

Reference: PMC10712727, “Safety, Tolerability, and Pharmacokinetics of Senaparib, a Novel PARP1/2 Inhibitor, in Chinese Patients With Advanced Solid Tumors: A Phase I Trial” (The Oncologist, 2023)
